Key:
Format in all cases: biochemical
[1] = molecular target: T1, porcine pancreatic lipase (Sus scrofa, UniProt P00591); assay: p-nitrophenyl palmitate (pNpp) test: inhibition of lipolytic action of porcine pancreatic lipase in vitro; conditions: substrate p-nitrophenyl palmitate, 37° C., absorbance at 405 nm; read-out: IC50, porcine pancreatic lipase-inhibiting action in vitro with respect to pNpp
T1 construct: lipase standard LS7 in accordance with the rules of the “Fédération Internationale Pharmaceutique” (=FIP) (porcine pancreatic lipase, 36,700 FIP units/g); host or cells: porcine pancreas
T1 sequence (P00591 1-450): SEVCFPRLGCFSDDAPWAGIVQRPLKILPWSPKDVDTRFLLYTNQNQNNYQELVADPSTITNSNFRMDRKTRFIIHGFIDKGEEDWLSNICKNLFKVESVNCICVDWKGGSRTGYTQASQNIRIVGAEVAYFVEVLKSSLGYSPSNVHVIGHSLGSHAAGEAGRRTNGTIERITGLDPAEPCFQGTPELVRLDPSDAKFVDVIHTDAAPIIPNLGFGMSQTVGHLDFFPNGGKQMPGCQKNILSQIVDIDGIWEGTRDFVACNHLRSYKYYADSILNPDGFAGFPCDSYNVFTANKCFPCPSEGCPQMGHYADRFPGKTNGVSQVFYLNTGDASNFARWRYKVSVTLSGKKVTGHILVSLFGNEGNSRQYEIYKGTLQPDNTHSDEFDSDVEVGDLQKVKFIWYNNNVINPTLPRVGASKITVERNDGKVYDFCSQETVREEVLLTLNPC
Procedure: 1. p-nitrophenyl Palmitate Test
In this test the inhibition of the lipolytic action of porcine pancreatic lipase with respect to the test substrate p-nitrophenyl palmitate(=pNpp) under the influence of the test substances of Formula I was determined. Therein, the change in the relative absorbance of the investigated solutions caused by the lipolytic release of p-nitrophenol from pNpp was measured.
(§1) The reagents given below were prepared:
To prepare a “solution A”, 45 mg pNpp was dissolved in 15 ml isopropanol by sonication with ultrasound. To prepare a “solution B”, 558 mg Na-deoxycholate dry substance and 67.5 mg gum arabic were dissolved in 135 ml 0.05 M sodium phosphate buffer (pH=8.0). 15 ml “solution A” was injected into 135 ml ice-cold “solution B” in […] of 1.25 ml with an Eppendorf hand dispenser with stirring at 400 rpm at the highest possible rate. The initial absorbance E1 when determining the blank reading was less than 0.250 U each time.
B. Sodium Chloride Solution 1% (mN)
10 g sodium chloride (NaCl, p.a.) was dissolved in 1000 ml ultrapure water.
C. Lipase Standard Solution (50 FIP units/ml)
120.8 mg lipase standard LS7 in accordance with the rules of the “Fédération Internationale Pharmaceutique” (=FIP) (porcine pancreatic lipase, 36,700 FIP units/g) was dissolved in 50 ml ice-cold sodium chloride solution (B) and filtered through a 0.2 μm syringe filter. 20 ml of the filtrate was diluted with […] sodium chloride solution (B) (corresponding to 50 FIP units/ml).
D. Lipase Calibration Solutions (10–20–30–40 FIP units/ml)
In each case 2–4–6–8 ml lipase standard solution (C) was made up to 10 ml with sodium chloride solution (B) and stored in an ice bath.
E. Lipase Stock Solution (40 FIP units/ml)
8 ml lipase standard solution was made up to 10 ml with sodium chloride solution (B) and stored in an ice bath.
The lipase-inhibitory compounds of Formula I were dissolved in DMSO. A dilution series of 100–0.1 nmol/ml was produced from this stock solution. 100 μl of these dilutions were used in the test. The dilutions were adapted such that the maximum residual activity of the lipase was >90%.
Measurement was effected at 37° C., and the absorbances were measured at a wavelength of 405 nm. The photometric measuring station comprised a photometer and an agitator (from Eppendorf). The photometer was adjusted to 0 U with water. At the start and end of the investigation series, in each case eight blank readings and one lipase calibration series were measured. For the blank readings, in each case 1 ml substrate solution was mixed with 100 μl DMSO, the mixture was shaken for 5 seconds and kept at a controlled temperature for 5 minutes. Then 100 μl sodium chloride solution (B) were added thereto by pipette and the mixture was shaken for a further 5 seconds. After 2 minutes, the increase in absorbance was detected for 4 minutes. The absorbance starting value E1 when determining the blank readings was in each case less than 0.250 U.
For the calibration, 1 ml substrate solution was placed in each of eight cuvettes, mixed with 100 μl DMSO, shaken for 5 seconds and kept at a controlled temperature for 5 minutes. The reaction was started with 100 μl calibration solution. After 2 minutes, the kinetics were detected for 4 minutes. Each concentration was measured twice.
For measuring the inhibitor solutions, 1 ml substrate solution was placed in each of eight cuvettes, mixed with 100 μl inhibitor solution, shaken for 5 seconds and then kept at a controlled temperature for 5 minutes. The reaction was started with 100 μl lipase stock solution. After 2 minutes, the kinetics were detected for 4 minutes. The inhibitor solutions and the lipase standard solution were each prepared immediately before the start of the investigation series. […]

pancreatic lipase = assay: Pancreatic lipase-inhibiting action of intermediates of Formula IVa (statement, no method given); conditions: qualitative statement
[2] = molecular target: T1, porcine pancreatic lipase; assay: Olive oil test: inhibition of porcine pancreatic lipase with respect to triglycerides in olive oil (pH-stat titration); conditions: substrate olive oil emulsion, pH 9.0, 37.0° C., 10 minutes pre-incubation in ice bath; read-out: IC50, porcine pancreatic lipase-inhibiting action in vitro with respect to triglycerides in olive oil
Procedure: In a heterogeneous reaction, the inhibition of the lipolytic action of porcine pancreatic lipase was determined under the influence of the test substances of Formula I with respect to the triglycerides contained in the test substrate olive oil. The fatty acids released by the lipase were titrated with sodium hydroxide solution to pH 9.0.
as §1
A. Gum Arabic Solution 10% (m/V)
200 g gum arabic (Acaciae gummi in accordance with the specifications of the German Pharmacopeia (=DAB)/European Pharmacopeia (=Ph.Eur.) was dissolved in 2000 ml ultrapure water with stirring and if necessary centrifugation. The solution was stored at −20° C. in plastic vessels of capacity of 250 ml. The amount required per day was thawed as required.
B. Sodium Taurocholate Solution 8% (m/V)
8 g sodium taurocholate (FIP) was dissolved in 100 ml ultrapure water.
60.6 mg Tris(hydroxymethyl)aminomethane p.a. (Merck, No. 8382) and 234 mg sodium chloride (p.a.) were dissolved in 100 ml ultrapure water.
D. 0.1 N Sodium Hydroxide Solution […]
1 ml lipase reference suspension was incubated with the respective amount of inhibitor solution for 10 minutes in an ice bath. […] The sodium hydroxide consumption between the 1st and the 5th minute was evaluated. […]

| Compound | IC50 [1] [nM] | IC50 [2] [nM] | action inhibiting pancreatic lipase (pancreatic lipase) |
| --- | --- | --- | --- |
| CCCCCC[C@@H]1C(=O)O[C@H]1CCCCCOC(=O)Nc1ccc(Oc2ccccc2)cc1 [Example 6, (2S,3S)-5-(3-hexyl-4-oxo-oxetan-2-yl)-pentyl-(4-phenoxyphenyl)-carbamate] | 113 |  |  |
| CCCCCCC1C(=O)OC1CCCCCOC(=O)Nc1ccc(Cl)c(Cl)c1 (stereo not shown) [Example 13] | 319 |  |  |
| CCCCCCC1C(=O)OC1CCCCCOCc1ccccc1 (stereo not shown) [3-hexyl-4-[5(benzyloxy)pentyl}]oxetan-2-one] |  |  | exhibit an action inhibiting pancreatic lipase |
| CCCCCCC1C(=O)OC1CCCCCOC1CCCCO1 (stereo not shown) [3-hexyl-4-{5[(tetrahydro-2H-pyran-2-yl)oxy]pentyl}oxetan-2-one] |  |  | exhibit an action inhibiting pancreatic lipase |
| CCCCCCC1C(=O)OC1CCCCCOC(=O)NCc1ccccc1 (stereo not shown) [Example 8] | 187 |  |  |
| CCCCCCC1C(=O)OC1CCCCCOC(=O)NC(=O)c1ccccc1 (stereo not shown) [Example 10] | 177 |  |  |

Further lines, with some results ahead:

| IC50 [1] [nM] | IC50 [2] [nM] | Compound | action inhibiting pancreatic lipase (pancreatic lipase) |
| --- | --- | --- | --- |
| 107 |  | CCCCCCC1C(=O)OC1CCCOC(=O)Nc1ccccc1 (racemic) [Example 7] |  |
| 28 |  | CCCCCCC1C(=O)OC1CCCCCOC(=O)NCCc1ccccc1 (stereo not shown) [Example 11] |  |
| 67 |  | CCCCCCC1C(=O)OC1CCCCCOC(=O)Nc1ccc(OCC)cc1 (stereo not shown) [Example 9] |  |
| 47 |  | CCCCCCC1C(=O)OC1CCCCCOC(=O)Nc1ccccc1 (mixture of isomers) [Example 2, cis/trans-5-(3-hexyl-4-oxo-oxetan-2-yl)pentyl-phenyl carbamate] |  |
| 88 |  | CCCCCCC1C(=O)OC1CCCCCOC(=O)NC(C)C (mixture of isomers) [Example 3, cis/trans-5-(3-hexyl-4-oxo-oxetan-2-yl)pentyl-isopropyl carbamate] |  |
| 106 | 17 | CCCCCC[C@@H]1C(=O)O[C@H]1CCCCCOC(=O)Nc1ccc(Oc2ccccc2)cc1 (relative stereo) [Example 1, trans-(3-hexyl-4-oxo-oxetan-2-yl)-pentyl-(phenoxyphenyl)-carbamate] |  |

Reference: patent publication US7074822B2, “Alkyl carbamate-substituted β-lactones, process for their preparation, and pharmaceutical compositions containing them” (Solvay Pharmaceuticals GmbH, priority 2004, dated 2006)
